# From patent US11369565B2, “Amino-pyrimidine skeletal muscle modulators” (Cytokinetics, Inc., priority 2010, dated 2022)
# System: rabbit skeletal myofibrils (approximately 90% fast fibers)
# Assay: Activation of fast skeletal myofibrils (PUMA coupled-enzyme ATPase assay at pCa25)
# Type: biochemical
# Conditions: concentration at which the compound increased the enzymatic activity by 40%; calcium at pCa25; PM12 buffer pH 6.8
# In short: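 Detergent-washed rabbit psoas myofibrils tested at calcium giving 25% of maximal rate (pCa25). ATPase activity tracked by pyruvate kinase/lactate dehydrogenase coupling, NADH oxidation read as absorbance at 340 nm, in PM12 buffer (12 mM Pipes, 2 mM MgCl2, 1 mM DTT, pH 6.8).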
row,SMILES,Mean AC1.4
1,Nc1ncc(-c2cnc(NC[C@]3(c4ncccc4F)C[C@H](F)C3)nc2)cn1 [[5-(2-aminopyrimidin-5-yl)]pyrimidin-2-yl]{[3-fluoro-1-(3-fluoro(2-pyridyl))cyclobutyl]methyl}amine],B (B=1-10 uM)
2,CC(C)(Nc1ncc(-c2cnc(N)nc2)cn1)c1ncccc1F [[5-(2-aminopyrimidin-5-yl)pyrimidin-2-yl][1-(3-fluoro(2-pyridyl))-isopropyl]amine],D (D=>20 uM)
3,CC(C)(Nc1ncc(-c2ccc3[nH]nc(N)c3c2)cn1)c1ncccc1F [[5-(3-amino(1H-indazol-5-yl))pyrimidin-2-yl][1-(3-fluoro(2-pyridyl))-isopropyl]amine],A (A=<1 uM)
4,CC(C)(CNc1ncc(-c2ccc3[nH]nc(N)c3c2)cn1)c1ccc(F)cc1 [[5-(3-amino(1H-indazol-5-yl))pyrimidin-2-yl][2-(4-fluorophenyl)-2-methylpropyl]amine],A (A=<1 uM)
5,CC(C)(C)Nc1ncc(-c2ccc3[nH]nc(N)c3c2)cn1 [[5-(3-amino(1H-indazol-5-yl))pyrimidin-2-yl]tert-butyl)amine],B (B=1-10 uM)
6,Nc1cnc(-c2cnc(NC[C@]3(c4ncccc4F)C[C@H](F)C3)nc2)cn1 [[5-(5-aminopyrazin-2-yl)pyrimidin-2-yl]{[3-fluoro-1-(3-fluoro(2-pyridyl))cyclobutyl]methyl}amine],B (B=1-10 uM)
7,Nc1cncc(-c2cnc(NC[C@]3(c4ncccc4F)C[C@H](F)C3)nc2)n1 [[5-(6-aminopyrazin-2-yl)pyrimidin-2-yl]{[3-fluoro-1-(3-fluoro(2-pyridyl))cyclobutyl]methyl}amine],B (B=1-10 uM)
8,Nc1ccc(-c2cnc(NC[C@]3(c4ncccc4F)C[C@H](F)C3)nc2)nn1 [[5-(6-aminopyridazin-3-yl)pyrimidin-2-yl]{[3-fluoro-1-fluoro(2-pyridyl))cyclobutyl]methyl}amine],B (B=1-10 uM)
9,Fc1cc2[nH]ncc2cc1-c1cnc(NC2(c3ncccc3F)CCC2)nc1 [[5-(6-fluoro(1H-indazol-5-yl))pyrimidin-2-yl][(3-fluoro(2-pyridyl))cyclobutyl]amine],B (B=1-10 uM)
10,Fc1cccnc1C1(Nc2nccc(C(F)(F)F)n2)CCC1 [[(3-fluoro(2-pyridyl))cyclobutyl][4-(trifluoromethyl)pyrimidin-2-yl]amine],D (D=>20 uM)
11,Fc1cccnc1C1(Nc2ncc3ccccc3n2)CCC1 [[(3-fluoro(2-pyridyl))cyclobutyl]quinazolin-2-ylamine],D (D=>20 uM)
12,Fc1ccc(C2(Nc3nccc(C(F)(F)F)n3)CCC2)cc1 [[(4-fluorophenyl)cyclobutyl][4-(trifluoromethyl)pyrimidin-2-yl]amine],C (C=10-20 uM)
13,"Fc1ccc(C2(Nc3ncc4cn[nH]c4n3)CCC2)cc1 [[(4-fluorophenyl)cyclobutyl]pyrazolo[5,4-d]pyrimidin-6-ylamine]",D (D=>20 uM)
14,CCOC(=O)c1cnn(-c2cnc(NCC3(c4ncccc4F)CCC3)nc2)c1 [ethyl 1-[2-({[(3-fluoro-2-pyridyl)cyclobutyl]methyl}amino)pyrimidin-5-yl] pyrazole-4-carboxylate],D (D=>20 uM)
15,"CCOC(=O)c1cc2cnc(NCC3(c4ncccc4F)CCC3)nc2s1 [ethyl 2-({[(3-fluoro-2-pyridyl)cyclobutyl]methyl}amino) thiopheno[2,3-d]pyrimidine-6-carboxylate]",D (D=>20 uM)
16,"CCOC(=O)c1csc(-c2cnc(NCC3(c4ncccc4F)CCC3)nc2)n1 [ethyl 2-[2-({[(3-fluoro-2-pyridyl)cyclobutyl]methyl}amino)pyrimidin-5-yl]-1,3-thiazole-4-carboxylate]",D (D=>20 uM)
17,CCOC(=O)c1cc(-c2cnc(NC(C)(C)c3ncccc3Cl)nc2)no1 [ethyl 3-(2-{[1-(3-chloro(2-pyridyl))-isopropyl]amino}pyrimidin-5-yl)isoxazole-5-carboxylate],D (D=>20 uM)
18,"CCOC(=O)c1noc(-c2cnc(NC(C)(C)c3ncccc3Cl)nc2)n1 [ethyl 5-(2-{[1-(3-chloro(2-pyridyl))-isopropyl]amino}pyrimidin-5-yl)-1,2,4-oxadiazole-3-carboxylate]",D (D=>20 uM)
19,"CCOC(=O)c1nnc(-c2cnc(NC(C)(C)c3ncccc3Cl)nc2)o1 [ethyl 5-(2-{[1-(3-chloro(2-pyridyl))-isopropyl]amino}pyrimidin-5-yl)-1,3,4-oxadiazole-2-carboxylate]",D (D=>20 uM)

row,SMILES,Mean AC1.4
1,COC(=O)c1ccn(-c2cnc(NC[C@]3(c4ncccc4F)C[C@H](F)C3)nc2)c1 [methyl 1-[2-({[3-fluoro-1-(3-fluoro(2-pyridyl))cyclobutyl]methyl}amino)pyrimidin-5-yl]pyrrole-3-carboxylate],D (D=>20 uM)
2,COC(=O)Cc1ccc(F)c(-c2cnc(NC(C)(C)c3ncccc3F)nc2)c1 [methyl 2-[4-fluoro-3-(2-{[1-(3-fluoro(2-pyridyl))-isopropyl]amino}pyrimidin-5-yl)phenyl]acetate],C (C=10-20 uM)
3,COC(=O)c1cnc(NCC(C)(C)c2ccc(F)cc2)nc1 [methyl 2-{[2-(4-fluorophenyl)-2-methylpropyl]amino}pyrimidine-5-carboxylate],D (D=>20 uM)
4,COC(=O)CNC(=O)c1cnc(NCC2(c3ncccc3F)CCC2)nc1 [methyl 2-{[2-({[(3-fluoro-2-pyridyl)cyclobutyl]methyl}amino)pyrimidin-5-yl]carbonylamino} acetate],D (D=>20 uM)
5,COC(=O)c1ccc(O)c(-c2cnc(NC[C@]3(c4ncccc4F)C[C@H](F)C3)nc2)c1 [methyl 3-[2-({[3-fluoro-1-(3-fluoro(2-pyridyl))cyclobutyl]methyl)amino)pyrimidin-5-yl]-4-hydroxybenzoate],A (A=<1 uM)
6,COC(=O)c1nc(-c2cnc(NC(C)(C)c3ncccc3Cl)nc2)cn1C [methyl 4-(2-{[1-(3-chloro(2-pyridyl))-isopropyl}amino}pyrimidin-5-yl)-1-methylimidazole-2-carboxylate],D (D=>20 uM)
7,COC(=O)c1cc(-c2cnc(NC(C)(C)c3ncccc3Cl)nc2)ncn1 [methyl 6-(2-{[1-(3-chloro(2-pyridyl))-isopropyl]amino}pyrimidin-5-yl)pyrimidine-4-carboxylate],D (D=>20 uM)
8,CNC(=O)c1ccn(-c2cnc(NC[C@]3(c4ncccc4F)C[C@H](F)C3)nc2)c1 [{1-[2-({[3-fluoro-1-(3-fluoro(2-pyridyl))cyclobutyl]methyl}amino)pyrimidin-5-yl]pyrro1-3-yl}-N-methylcarboxamide],B (B=1-10 uM)
9,"CC(C)(Nc1nccc(-c2nccs2)n1)c1cccc(OC(F)F)n1 [{1-[6-(difluoromethoxyl)(2-pyridyl)]-isopropyl)(4-(1,3-thiazol-2-yl)]pyrimidin-2-yl)amine]",C (C=10-20 uM)
10,CNC(=O)c1ccnc(-c2cnc(NC[C@]3(c4ncccc4F)C[C@H](F)C3)nc2)c1 [{2-[2-({[3-fluoro-1-(3-fluoro(2-pyridyl))cyclobutyl]methyl}amino)pyrimidin-5-yl](4-pyridyl)}-N-methylcarboxamide],B (B=1-10 uM)
11,CNC(=O)c1ccnc(-c2cnc(NC[C@]3(c4ncccc4F)C[C@H](F)C3)nc2)n1 [{2-[2-({[3-fluoro-1-(3-fluoro(2-pyridyl))cyclobutyl]methyl}amino)pyrimidin-5-yl]pyrimidin-4-yl}-N-methylcarboxamide],B (B=1-10 uM)
12,O=C(NC1CC(O)C1)c1cccc(-c2cnc(NC[C@]3(c4ncccc4F)C[C@H](F)C3)nc2)c1 (some centres unmarked) [{3-[2-(([3-fluoro-1-(3-fluoro(2-pyridyl))cyclobutyl]methyl}amino)pyrimidin-5-yl]phenyl}-N-(3-hydroxycyclobutyl)carboxamide],B (B=1-10 uM)
13,CNC(=O)c1cccc(-c2cnc(NC[C@]3(c4ncccc4F)C[C@H](F)C3)nc2)c1O [{3-[2-({[3-fluoro-1-(3-fluoro(2-pyridyl))cyclobutyl]methyl}amino)pyrimidin-5-yl]-2-hydroxyphenyl}-N-methylcarboxamide],B (B=1-10 uM)
14,CNC(=O)c1ccc(O)c(-c2cnc(NC[C@]3(c4ncccc4F)C[C@H](F)C3)nc2)c1 [{3-[2-({[3-fluoro-1-(3-fluoro(2-pyridyl))cyclobutyl]methyl}amino)pyrimidin-5-yl]-4-hydroxyphenyl}-N-methylcarboxamide],A (A=<1 uM)
15,CN1CC(NC(=O)c2cccc(-c3cnc(NC[C@]4(c5ncccc5F)C[C@H](F)C4)nc3)c2)C1 [{3-[2-({[3-fluoro-1-(3-fluoro(2-pyridyl))cyclobutyl]methyl}amino)pyrimidin-5-yl]phenyl}-N-(1-methylazetidin-3-yl)carboxamide],A (A=<1 uM)
16,CS(=O)(=O)NC(=O)c1cccc(-c2cnc(NCC3(c4ncccc4F)CC(F)C3)nc2)c1 (centres unmarked) [{3-[2-({[3-fluoro-1-(3-fluoro(2-pyridyl))cyclobutyl]methyl}amino)pyrimidin-5-yl]phenyl}-N-(methylsulfonyl)carboxamide],A (A=<1 uM)
17,CS(=O)(=O)N1CC(NC(=O)c2cccc(-c3cnc(NC[C@]4(c5ncccc5F)C[C@H](F)C4)nc3)c2)C1 [{3-[2-({[3-fluoro-1-(3-fluoro(2-pyridyl))cyclobutyl]methyl}amino)pyrimidin-5-yl]phenyl}-N-[1-(methylsulfonyl)azetidin-3-yl]carboxamide],B (B=1-10 uM)
18,CNC(=O)c1cccc(-c2cnc(NC[C@]3(c4ncccc4F)C[C@H](F)C3)nc2)c1 [{3-[2-({[3-fluoro-1-(3-fluoro(2-pyridyl))cyclobutyl]methyl}amino)pyrimidin-5-yl]phenyl}-N-methylcarboxamide],B (B=1-10 uM)
19,CNC(=O)c1cccc(-c2cnc(NCC3(c4ncccc4F)CCC3)nc2)c1 [{3-[2-({[(3-fluoro(2-pyridyl))cyclobutyl]methyl)amino)pyrimidin-5-yl]phenyl}-N-methylcarboxamide],B (B=1-10 uM)
